Experimental findings from PubChem BioAssay (NCI) are described below.

Common to all, as to assay: DTP human tumour cell line panel, 48 h
Experiment [1] relates to HCC-2998 colon.
Experiment [2] has as its system SR leukemia.
Experiment [3] deals with MDA-N.
Experiment [4] relates to SN12C renal.
The subject of experiment [5] is HS 578T breast.
Experiment [6] has as its system HL-60(TB) leukemia.
For experiment [7], the system named is M14 melanoma.
The test system of experiment [8] is HCT-15 colon.
For experiment [9], the system named is COLO 205 colon.
Experiment [10] has as its system HOP-92 NSCLC.
Experiment [11] deals with BT-549 breast.

Each structure is given as a SMILES string.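 Interpolation was linear, between the two tested concentrations surrounding the appropriate level; five concentrations were tested over 48 hours in 96-well plates. TGI is the concentration that stops growth completely.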 Where a SMILES comes first, the peptide text is derived from it. The star is where a group is joined. Boc = CC(C)(C)OC(=O)* A value given as a limit tells only on which side of the number the result lay.

As a reminder, the TGI is the concentration giving total growth inhibition. The low end stands for greater sensitivity of the cells, the high end for lower sensitivity of the cells. As to `O=C(/C=C/c1ccc(O)c(O)c1)OCCCc1ccccc1`, the TGI in experiment [1] is 39.5 µM; in experiment [2], 22.8 µM; in experiment [3], 31.3 µM; in experiment [4], 25.3 µM; in experiment [5], 74.5 µM; in experiment [6], 4.84 µM. Further, the TGI in experiment [7] was found to be 22.6 µM; in [8], 26.4 µM; in experiment [9], 27.1 µM; in experiment [10], 30.6 µM.

Regarding `CCCSc1ccc2[nH]c(N3C(=O)/C(=C/c4ccco4)N=C3c3ccccc3)cc2c1`, the TGI was above 50 µM in experiment [11]; above 50 µM in experiment [1]; above 50 µM in experiment [2]; 20.1 µM in experiment [3]; above 50 µM in experiment [4]; above 50 µM in experiment [6]. The TGI was above 50 µM in [7], above 50 µM in experiment [8], 32.8 µM in [9] and above 50 µM in experiment [10].

With `Cc1[nH]c2c(c1C)S(=O)(=O)c1cc3ccccc3nc1N2`, the TGI in experiment [11] is above 100 µM; in experiment [1], above 100 µM; in experiment [2], above 100 µM; in [3] it was 39.4 µM; in experiment [4], 36.9 µM; in [7], 62.5 µM. Besides, the TGI in experiment [8] is above 100 µM; in [9], 46.3 µM; in experiment [10], above 100 µM.

Regarding `COC(=O)C(Cc1c[nH]c2ccccc12)NC(=O)C(Cc1c[nH]c2ccccc12)NC(=O)C(Cc1c[nH]c2ccccc12)NC(=O)C(Cc1c[nH]c2ccccc12)NC(=O)C(Cc1c[nH]c2ccccc12)NC(=O)C(Cc1c[nH]c2ccccc12)NC(=O)OC(C)(C)C` (stereo not drawn) (Boc-WWWWWW-OMe; configuration not given here), the TGI in experiment [11], in [1], in [2], in experiment [3], in [4] and in [6] was above 100 µM each time. The molecule further gave a TGI in experiment [8] above 100 µM.

As for `OC(c1cc2ccccc2o1)c1cc2ccccc2s1` (stereo not drawn), the TGI in experiment [1], in experiment [2], in [3], in experiment [4], in experiment [5] and in experiment [6] was above 10 µM each time. In addition, the TGI in experiment [7], in [8], in experiment [9] and in [10] was above 10 µM each time.

For `COC(=O)/C(=C\Nc1cccc(C)n1)S(=O)(=O)c1ccc(C)cc1`, the TGI in [1] is above 100 µM; in experiment [2], above 100 µM; in experiment [3] it was above 100 µM; in [4] it was above 100 µM; in experiment [5], above 100 µM; in [6], 53.3 µM. Besides, the TGI in experiment [7] was above 100 µM; in [8], above 100 µM; in [9] it was 49.9 µM; in [10], above 100 µM.

`O=C(O)c1cc2ccccc2c(N=Nc2ccc(S(=O)(=O)Nc3nccs3)cc2)c1O`: the TGI in experiment [1], in experiment [2], in [3], in [4], in experiment [5] and in experiment [6] was above 100 µM throughout. For the same molecule, the TGI in experiment [7], in [8], in experiment [9] and in experiment [10] was above 100 µM throughout.

Take `CC(=O)[C@@]1(C)CC2(CCN(C)CC2)OC1C` (stereo partly drawn): the TGI in [11], in experiment [3], in [4], in experiment [7], in experiment [8] and in experiment [9] was above 100 µM in each case. Moreover, the TGI in experiment [10] is above 100 µM.

Take `O=C1CC2(c3ccccc3)ON=C(c3ccccc3)N2c2ccccc2N1` (stereo not drawn): the TGI in experiment [11], in experiment [1], in experiment [2], in [3], in experiment [4] and in experiment [6] was above 100 µM in each case. Moreover, the TGI is above 100 µM in experiment [7], above 100 µM in [8], above 100 µM in experiment [9] and 83.6 µM in experiment [10].

As to `CC1(C)N=C(C(N)=O)c2ncn(N)c2N1`, the TGI in experiment [1], in [2], in experiment [3], in experiment [4], in [5] and in experiment [6] was above 100 µM each time. Further, the TGI in [7], in experiment [8], in [9] and in [10] was above 100 µM each time.

Consider `COc1ccc2nc3c([N+](=O)[O-])ccc4c3c(c2c1)NCCN4CCO`, for which the TGI in experiment [1] was determined as 1.91 µM; in experiment [2] it was 0.455 µM; in experiment [3], 1.64 µM; in experiment [4] it was 2.34 µM; in experiment [5], 2.79 µM; in [6] it was 1.25 µM. The TGI was found to be 1.78 µM in [7], 2.68 µM in experiment [8], 1.74 µM in experiment [9] and 1.59 µM in [10].
